Patent US11628164B2, “Composition containing salsolinol for treating liver cancer” (SUNGSHIN WOMEN'S UNIVERSITY R&DB FOUNDATION, priority 2020, dated 2023)

Key:
[1] = tested on: STAT3, pSTAT3, PCNA, 15-PGDH, p53 in SNU387; assay: Western blotting of tumor-related genes in SNU387; type: cell-based, human; conditions: SNU387, 25 μM salsolinol, 72 hours
Protocol: 5×10^5 cells of Human-derived liver cancer cell lines SK-Hep1 and SNU387 are cultured in a 60 mm culture vessel, the cells are lysed, and proteins are separated through electrophoresis. And after that, western blotting analysis is performed by using a specific antibody. After treatment of the SK-Hep1 and the SNU387 with the salsolinol at different times and concentrations, the cells are washed with PBS, and the cells are scraped off with a scraper. The cells are lysed in a lysis buffer for 1 hour, and after that, centrifuge separation is performed at 13,000 rpm for 15 minutes at 4° C., and only the supernatant is extracted. 20 μg of protein contained in the supernatant is electrophoresed on SDS-polyacrylamide gel, and after that, transferred to a PVDF membrane for 2 hours. The sample reacts with antibodies pSTAT3(#9145), STAT3(#9132), PCNA(#2586), 15-PGDH(cayman No. 160615), p53(sc-126), p53(sc-99), pAKT(#9271), AKT(#9272), Annexin A2(#8235), and GAPDH(sc-32233). The protein is detected by using an enhanced chemiluminascence (ECL) detection solution. As a result of the above-described experiment, it is confirmed that the activity of cells in the liver cancer cell lines SK-Hep1 is decreased by the salsolinol, and particularly, the specificity for the liver cancer cell lines is confirmed. In order to check the correlation between the decrease in the activity of cells of the liver cancer cell lines by the salsolinol and the gene expression, the SK-Hep1 which is a liver cancer cell line and the SNU387 which is a liver cancer cell line are cultured, and the samples are treated with 25 μM of salsolinol d for 72 hours. After the treatment, changes in the expression levels of tumor-related genes such as STAT3, pSTAT3, PCNA, 15-PGDH, and p53 are checked (refer to FIG. 4).

[2] = tested on: DEN-induced liver cancer mouse model (male); assay: DEN-induced liver cancer mouse model: liver weight, plasma AFP, tumor number, H&E; type: in vivo, C57BL/6 mouse
Protocol: The mouse used in the experiment are 7-week old male and female C57BL/6 mouse. The mouse is obtained from Orient Bio (ORIENT Bio, Gyeonggi-do Province, Korea) and is adapted in an environment that the contrast is controlled at a temperature of 22±2° C. and a humidity of 55 to 60% in 12-hour increments, and a standard diet is provided for 1 week. All animal experiments are performed in accordance with the regulations of the Laboratory Animal Ethics Committee of Sungshin Women's University. After adapting a male mouse born from the mating of the adapted mouse in the same environment for 2 weeks, a DEN-induced liver cancer mouse model is generated by a method of intraperitoneally administering a liver cancer-causing substance, diethylnitrosamine (DEN, 25 mg/kg). The salsolinol (200 mg/kg) is administered for 6 months through intraperitoneal injection three times per week from the time when the DEN-induced liver cancer mouse model (male) became 7 weeks of age. After the mouse is sacrificed, the experiment is performed. After the experiment is completed, the experimental animals are fasted for 4 hours, sacrificed with CO2 gas, and the blood collected from the heart is heparinized. And after that, centrifuge separation is performed at 3,000 rpm for 15 minutes to separate plasma. AFP (α-Fetoprotein) analysis is measured by enzyme-linked immunosorbent assay (ELISA). The separated plasma is diluted 20 times with a diluted solution, and after that, a 50 μl of standard curve reagent and plasma are inserted into a coated 96-well plate, and after that, the culturing is performed for 2 hours at room temperature. The culture medium is removed, and washing is performed 3 times with 100 μl of wash buffer. After adding 100 μl of prepared AFP conjugate to each well, the culturing is performed for 2 hours at room temperature. The culture medium is removed, and washing is performed 3 times with 100 μl of wash buffer. After adding 100 μl of reaction reagent to each well, the culturing is performed for 30 minutes in a dark place. After adding the same amount of reaction stop reagent to each well, tapping is lightly performed to mix thoroughly. With respect to the degree of reaction, after measuring the absorbance at 450 nm, the concentration of AFP is quantified by using a standard curve of a SpectraMax 190 microplate plate reader (Molecular Devices, LCC. San Jose, Calif.). The liver tissue is separated, the number of tumors is measured, and the degree of tumor formation is illustrated by a picture. After fixing 10% formaldehyde for morphological analysis, a paraffin section slide having a thickness of 4 μm is requested to be manufactured by Notus Co., Ltd. After removing paraffin No. 3 with xylene and re-dehydration in 95% and 70% alcohol, staining is performed by using Mayer's Hematoxylin. A male DEN-induced liver cancer mouse model is prepared by intraperitoneal (IP) administration of DEN 25 mg/kg, and the salsolinol 200 mg/kg is administered intraperitoneally to the model, and an effect of the salsolinol on liver cancer treatment is checked.

SK-Hep1 = assay: MTT cell viability, male-derived liver cancer cell line; type: cell-based, human; conditions: SK-Hep1, 5-100 μM salsolinol
Protocol: SK-Hep1 and SNU387, which are human-derived hepatoma cell lines, are distributed from Korea Cell Line Bank. […] The SK-Hep1 and the SNU387 are cultured in a medium including a minimum essential medium (Dulbecco Modified Eagle Medium, DMEM) (Gibco BRL grand Island, N.Y., USA) and in a medium containing 10% FBS (HyClone Lab, Inc, Logan, Utah, USA), 100 U/ml penicillin. (penicillin) and 100 μg/ml streptomycin (Gibco, Grand Island, N.Y., USA) at 37° C. in an atmosphere of 5% CO2. The cultured liver cancer cell lines (SK-HEP1 and SNU387) are dispensed into each well of a 48-well plate so as to have a concentration of 5×10^4 cells. After culturing for 24 hours, the sample is treated with the salsolinol for 24 hours, 48 hours, and 72 hours so as to have a concentration of 5 μM, 15 μM, 25 μM, 50 μM, or 100 μM. After that, 250 μl of 0.5 mg/ml MTT solution (Sigma, St Louis, Mo., US) is added to each well and reacted at 37° C. for 1 hour. After removing the solution, MTT-formazione is lysed and washed with 250 μl of DMSO (Dimethylsulfoxide, Duksan, Gyeonggi, Korea), and then, the absorbance at 540 nm is measured by using a SpectraMax 190 microplate plate reader (Molecular Devices, LCC. San Jose, Calif.). […]

CC1NCCc2cc(O)c(O)cc21 (stereo not shown) [salsolinol, 6,7-dihydroxy-1-methyl-1,2,3,4-tetrahydroisoquinoline]
15-PGDH expression level [1]: remains constant | PCNA expression level [1]: rather increased | STAT3 expression level [1]: remains constant | p53 expression level [1]: not changed | pSTAT3 expression level [1]: not decreased | abnormal types of hepatocytes (H&E staining) ([2]; DEN+SAL liver tissue): not observed | decrease in number of liver cancer tissues compared with DEN model ([2]; DEN+SAL male mice, salsolinol 200 mg/kg i.p.): about 60% | weight of the liver tissue ([2]; DEN+SAL male mice, salsolinol 200 mg/kg i.p. three times per week, 6 months): slightly equal to that of the normal mouse | average number of liver cancer tissues on the liver surface ([2]; DEN+SAL male mice, salsolinol 200 mg/kg i.p., DEN model about 10): four | plasma AFP level (average) ([2]; DEN+SAL male mice, salsolinol 200 mg/kg i.p., normal mouse 50, DEN model 720 ng/ml): 200 ng/mL | liver cancer tissue on the liver surface ([2]; normal mouse administered with salsolinol alone (SAL)): no liver cancer tissue is found | cell viability (MTT) (SK-Hep1; 48 and 72 hours): degree of decrease in cell viability according to the treatment concentration of salsolinol increases | cell viability (MTT) (SK-Hep1; 24 hours): cell viability decreases as the concentration of salsolinol increases
